Data: patent US10117878B2, “Ligands for nematode nuclear receptors and uses thereof” (priority 2006, dated 2018)

Assays:
[1] = molecular target: DAF-12 ligand binding domain (Caenorhabditis elegans, UniProt G5EFF5)
daf-9(dh6) null worms = test: Rescue of daf-9 null worms by extracts of sterols incubated with DAF-9 or control microsomes; details: for effect on daf-9 animals, DAF-9 microsomes (in words) / rescue of the Daf-c phenotypes: extracts from DAF-9 microsomes incubated with 100 μM sterol; for effect on daf-9 phenotypes, control microsomes (in words): extracts from control (hOR only) microsomes incubated with 100 μM sterol; for complete rescue of Daf-c and Mig phenotypes, animals tested: DAF-9 microsome reactions (100 μM sterol) diluted 8-fold
Protocol: Microsomes containing hOR or hOR and Daf-9 generated from Sf9 cells were thawed on ice and added to a final concentration of 0.5 mg/mL in 0.1M potassium phosphate buffer in the presence of an NADPH regenerating system (50 U/mL DL-isocitrate dehydrogenase, 0.1 M isocitrate and 0.1 M MgCl2). Substrates were added from stock solutions at 10^−2 M to a final concentration of 100 μM (final reaction volume of 0.5 mL). The mixture was preincubated for 3 min at 37° C. and the reaction was initiated by the addition of NADPH (1 mM). After 16 hrs, the reactions were stopped by extraction with 2×2 mL of methyl-tert-butyl-ether and the top layers were combined and dried under nitrogen. In some experiments, 0.5 μg of 1,4-cholestadiene-3-one was added as an internal standard for the extraction.
Individual 3-keto sterols and their respective 3β-hydroxy sterols were incubated with Sf9 cell microsomes co-expressing DAF-9 and the human P450 oxidoreductase (hOR). As a control, microsomes from cells expressing hOR alone were used.

human CYP27A1 = molecular target: T1, human CYP27A1 (Homo sapiens, UniProt Q02318); test: Co-transfection of HEK293 cells with GAL4-DAF-12, human CYP27A1 and bovine adrenodoxin; format: cell-based; details: sterol 25 μM; bovine adrenodoxin co-transfected
T1 construct: expressed in transfected cells; host or cells: HEK293
T1 sequence (Q02318 34-531): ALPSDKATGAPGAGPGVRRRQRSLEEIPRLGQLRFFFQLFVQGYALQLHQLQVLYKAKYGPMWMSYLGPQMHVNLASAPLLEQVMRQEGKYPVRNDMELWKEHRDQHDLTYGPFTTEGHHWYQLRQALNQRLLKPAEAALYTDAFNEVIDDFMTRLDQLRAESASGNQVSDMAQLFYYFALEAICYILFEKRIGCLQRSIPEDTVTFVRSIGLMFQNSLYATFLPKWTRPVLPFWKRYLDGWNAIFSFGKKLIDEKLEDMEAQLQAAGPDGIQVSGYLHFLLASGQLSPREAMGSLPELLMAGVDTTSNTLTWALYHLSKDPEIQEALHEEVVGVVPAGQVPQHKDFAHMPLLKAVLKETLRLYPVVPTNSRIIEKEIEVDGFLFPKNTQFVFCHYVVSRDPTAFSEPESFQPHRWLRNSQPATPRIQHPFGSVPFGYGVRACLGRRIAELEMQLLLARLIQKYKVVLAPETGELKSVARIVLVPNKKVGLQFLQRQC
Protocol: (§1) Therefore, the ability of CYP27A1 to metabolize 4-cholesten-3-one into a DAF-12 activator was tested.

GAL4-DAF-12 = molecular target: T2, GAL4-DAF-12 (Caenorhabditis elegans, UniProt G5EFF5); test: Co-transfection assay: GAL4-DAF-12 and GAL4-responsive luciferase reporter in HEK293 cells; format: cell-based, C. elegans; details: for DAF-9 independent activation of GAL4-DAF-12 (in words): 10 μM sterol, without DAF-9; for Activation of DAF-12, initial compound screen: bile acids 10 μM with IBAT co-transfected, assays in the presence or absence of co-transfected DAF-9
T2 construct: 184-754aa (DAF-12); expressed in transfected cells; host or cells: HEK293

mouse CYP27A1 = molecular target: T3, mouse CYP27A1 (Mus musculus, UniProt Q9DBG1); test: Co-transfection of HEK293 cells with GAL4-DAF-12, mouse CYP27A1 and bovine adrenodoxin; format: cell-based; details: sterol 25 μM; bovine adrenodoxin co-transfected
T3 construct: expressed in transfected cells; host or cells: HEK293
T3 sequence (Q9DBG1 33-533): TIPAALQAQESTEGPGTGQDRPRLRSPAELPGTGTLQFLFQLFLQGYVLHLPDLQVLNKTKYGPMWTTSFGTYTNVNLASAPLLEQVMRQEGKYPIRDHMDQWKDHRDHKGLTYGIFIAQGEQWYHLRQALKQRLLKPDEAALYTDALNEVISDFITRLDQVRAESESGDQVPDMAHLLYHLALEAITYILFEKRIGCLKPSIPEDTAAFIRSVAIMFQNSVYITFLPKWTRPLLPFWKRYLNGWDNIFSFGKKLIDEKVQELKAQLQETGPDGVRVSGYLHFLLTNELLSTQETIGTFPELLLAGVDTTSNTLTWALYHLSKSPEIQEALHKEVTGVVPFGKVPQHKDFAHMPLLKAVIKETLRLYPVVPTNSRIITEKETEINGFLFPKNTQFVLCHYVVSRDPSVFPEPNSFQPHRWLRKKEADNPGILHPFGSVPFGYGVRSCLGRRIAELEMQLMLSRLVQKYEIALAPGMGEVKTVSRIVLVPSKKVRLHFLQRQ
Protocol: as §1

[2] = tested on: DAF-12 in the presence of DAF-9; test: Co-transfection assay: GAL4-DAF-12 reporter in HEK293 cells with co-transfected DAF-9; format: cell-based, C. elegans; details: 10 μM sterol; fold induction of RLU compared to ethanol control
Protocol: To screen for sterol-derived ligands of DAF-12 a co-transfection assay in HEK293 cells was performed using a chimeric GAL4-DAF-12 receptor and a GAL4-responsive luciferase reporter. […] Our initial compound screen consisted of bile acids and known vertebrate steroid and endocrine hormones as these compounds are ligands for PXR, VDR and LXR, the closest vertebrate homologs of DAF-12 (Antebi et al., 2000; Mooijaart et al., 2005).

C. elegans = details: in vivo; cited from earlier work
[3] = tested on: DAF-12 homolog with co-transfected DAF-9; test: Activation of the Anycolostoma ceylancium DAF-12 homolog with co-transfection of DAF-9; format: cell-based
From the text: This invention contemplates the development of strategies against nematodes, including but not limited to parasitic nematodes. Many parasitic nematodes contain homologs of the orphan nuclear receptor DAF-12, which, as described above, is a key regulator of reproductive development in C. elegans. See, e.g., Siddiqui et al. (2000). In accordance with the present invention, therefore, ligands that are operative in the DAF-9/DAF-12 pathway in C. elegans will affect the life cycles of parasitic nematodes similarly. The inventors have discovered in Anycolostoma ceylancium, for example, a DAF-12 homolog that is activated by DAF-12 ligands, identified pursuant to this invention.

daf-9(dh6) nulls = test: Rescue assay with pure steroids, daf-9(dh6) nulls; format: in vivo, C. elegans; details: for effect of 26-hydroxy-4-cholesten-3-one on daf-9 nulls (in words): concentrations as high as 33 μM
[4] = extracts from DAF-9 microsomes incubated with sterol
[5] = control microsome reactions (100 μM sterol) diluted 8-fold

T2 sequence (G5EFF5 184-753): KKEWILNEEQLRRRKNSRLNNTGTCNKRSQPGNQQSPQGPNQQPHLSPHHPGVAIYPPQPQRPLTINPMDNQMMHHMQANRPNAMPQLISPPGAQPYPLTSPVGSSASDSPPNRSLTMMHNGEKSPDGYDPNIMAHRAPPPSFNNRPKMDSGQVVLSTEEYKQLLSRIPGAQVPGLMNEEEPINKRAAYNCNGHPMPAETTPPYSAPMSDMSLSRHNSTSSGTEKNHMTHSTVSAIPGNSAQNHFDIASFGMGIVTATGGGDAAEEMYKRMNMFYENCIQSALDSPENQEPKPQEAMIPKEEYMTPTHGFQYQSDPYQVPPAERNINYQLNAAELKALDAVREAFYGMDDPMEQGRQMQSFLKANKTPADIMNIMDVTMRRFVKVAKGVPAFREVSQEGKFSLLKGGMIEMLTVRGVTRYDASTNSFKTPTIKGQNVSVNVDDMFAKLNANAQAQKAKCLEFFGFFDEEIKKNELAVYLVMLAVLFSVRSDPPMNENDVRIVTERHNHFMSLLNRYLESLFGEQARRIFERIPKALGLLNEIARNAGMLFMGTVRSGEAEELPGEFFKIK
Chain of DAF-12 ligand binding domain (G5EFF5 507-753): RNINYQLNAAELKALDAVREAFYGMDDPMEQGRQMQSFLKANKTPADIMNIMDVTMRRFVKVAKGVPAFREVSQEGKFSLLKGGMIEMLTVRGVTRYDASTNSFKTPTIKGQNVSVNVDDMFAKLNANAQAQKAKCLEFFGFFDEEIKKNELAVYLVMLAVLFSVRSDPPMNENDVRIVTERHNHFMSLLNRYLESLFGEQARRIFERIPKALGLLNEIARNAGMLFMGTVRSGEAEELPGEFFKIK

CC(C)CCC[C@@H](C)[C@H]1CC[C@H]2[C@@H]3CCC4=CC(=O)CC[C@]4(C)[C@H]3CC[C@]12C [4-cholesten-3-one]
binding (in words) ([1]; 1 μM sterol): no significant binding
effect on daf-9 animals, DAF-9 microsomes (in words) (daf-9(dh6) null worms): indistinguishable from wild-type adults
rescue of the Daf-c phenotypes (daf-9(dh6) null worms): 100%
effect on daf-9 phenotypes, control microsomes (in words) (daf-9(dh6) null worms): did not rescue any daf-9 phenotypes
activation of GAL4-DAF-12 with co-transfected human CYP27A1 (human CYP27A1): potent activation
DAF-9 independent activation of GAL4-DAF-12 (in words) (GAL4-DAF-12): required the presence of DAF-9
activation of GAL4-DAF-12 with co-transfected mouse CYP27A1 (mouse CYP27A1): potent activation
activation of DAF-12 upon co-transfection with DAF-9 [2]: 109 fold

C[C@H](CCC(=O)O)[C@H]1CC[C@H]2[C@@H]3CC[C@@H]4CC(=O)CC[C@]4(C)[C@H]3CC[C@]12C [3-keto-lithocholic acid]
Activation of DAF-12, initial compound screen (GAL4-DAF-12): weak, micromolar activator of DAF-12 independent of DAF-9

CC(C)CCC[C@@H](C)[C@H]1CC[C@H]2C3=CC[C@H]4C[C@@H](O)CC[C@]4(C)[C@H]3CC[C@]12C [lathosterol]
effect on the nematode life cycle as the sole dietary sterol (C. elegans): supported full reproductive growth
effect on daf-9 animals, DAF-9 microsomes (in words) (daf-9(dh6) null worms): exhibited the Mig phenotype and were sterile
rescue of the Daf-c phenotypes (daf-9(dh6) null worms): 83%
effect on daf-9 phenotypes, control microsomes (in words) (daf-9(dh6) null worms): no effect

CC(=O)[C@H]1CC[C@H]2[C@@H]3CCC4=CC(=O)CC[C@]4(C)[C@H]3CC[C@]12C [progesterone]
Activation of DAF-12, initial compound screen (GAL4-DAF-12): No other bile acids or endocrine hormones tested activated DAF-12

CC(=O)[C@H]1CC[C@H]2[C@@H]3CC=C4C[C@@H](O)CC[C@]4(C)[C@H]3CC[C@]12C [pregnenolone]
Activation of DAF-12, initial compound screen (GAL4-DAF-12): No other bile acids or endocrine hormones tested activated DAF-12

CC(C)CCC[C@@H](C)[C@H]1CC[C@H]2C3=CC[C@H]4CC(=O)CC[C@]4(C)[C@H]3CC[C@]12C [lathosterone]
activation of the DAF-12 homolog with co-transfection of DAF-9 [3]: causes activation of this DAF-12 homolog
ligand binding activity of DAF-9 microsomes incubated with sterol ([1]; 1:5000 dilution of DAF-9 microsomes incubated with 100 μM sterol): strong ligand binding activity
effect on daf-9 animals, DAF-9 microsomes (in words) (daf-9(dh6) null worms): indistinguishable from wild-type adults
rescue of the Daf-c phenotypes (daf-9(dh6) null worms): 100%
effect on daf-9 phenotypes, control microsomes (in words) (daf-9(dh6) null worms): did not rescue any daf-9 phenotypes
activation of GAL4-DAF-12 with co-transfected human CYP27A1 (human CYP27A1): had no effect
DAF-9 independent activation of GAL4-DAF-12 (in words) (GAL4-DAF-12): required the presence of DAF-9
activation of GAL4-DAF-12 with co-transfected mouse CYP27A1 (mouse CYP27A1): had no effect
activation of DAF-12 upon co-transfection with DAF-9 [2]: 433 fold

C[C@H](CCC(=O)O)[C@H]1CC[C@H]2[C@@H]3CC(=O)[C@@H]4C[C@H](O)CC[C@]4(C)[C@H]3CC[C@]12C [6-keto-lithocholic acid]
Activation of DAF-12, initial compound screen (GAL4-DAF-12): No other bile acids or endocrine hormones tested activated DAF-12

C[C@H](CCC(=O)O)[C@H]1CC[C@H]2[C@@H]3C(=O)C[C@@H]4C[C@H](O)CC[C@]4(C)[C@H]3CC[C@]12C [7-keto-lithocholic acid]
Activation of DAF-12, initial compound screen (GAL4-DAF-12): No other bile acids or endocrine hormones tested activated DAF-12

CC(C)CCC[C@@H](C)[C@H]1CC[C@H]2C3=CC[C@H]4[C@H](C)C(=O)CC[C@]4(C)[C@H]3CC[C@]12C [lophenone]
effect on daf-9 animals, DAF-9 microsomes (in words) (daf-9(dh6) null worms): resulted in rescue of Daf-c, none of these animals were normal
animals that failed to enter dauer, had molting defects, or were dead (daf-9(dh6) null worms; [4]): 42%
animals that were Mig (daf-9(dh6) null worms; [4]): 58%
effect on daf-9 phenotypes, control microsomes (in words) (daf-9(dh6) null worms): dependent on DAF-9
DAF-9 independent activation of GAL4-DAF-12 (in words) (GAL4-DAF-12): required the presence of DAF-9
activation of DAF-12 upon co-transfection with DAF-9 [2]: 103 fold

C[C@H](CCC(=O)O)[C@H]1CC[C@H]2[C@@H]3[C@H](O)C[C@@H]4C[C@H](O)CC[C@]4(C)[C@H]3C[C@H](O)[C@]12C [cholic acid]
Activation of DAF-12, initial compound screen (GAL4-DAF-12): No other bile acids or endocrine hormones tested activated DAF-12

CC(C)CCC[C@@H](C)[C@H]1CC[C@H]2[C@@H]3CC=C4C[C@@H](O)CC[C@]4(C)[C@H]3CC[C@]12C [cholesterol]
effect on daf-9 animals, DAF-9 microsomes (in words) (daf-9(dh6) null worms): no effect was seen
effect on daf-9 phenotypes, control microsomes (in words) (daf-9(dh6) null worms): no effect was seen

C[C@]12C[C@H](O)[C@H]3[C@@H](CCC4=CC(=O)CC[C@@]43C)[C@@H]1CC[C@@H]2C(=O)CO [corticosterone]
Activation of DAF-12, initial compound screen (GAL4-DAF-12): No other bile acids or endocrine hormones tested activated DAF-12

C[C@@H](CO)CCC[C@@H](C)[C@H]1CC[C@H]2[C@@H]3CCC4=CC(=O)CC[C@]4(C)[C@H]3CC[C@]12C [(25R),26-hydroxy-4-cholesten-3-one]
effect of 26-hydroxy-4-cholesten-3-one on daf-9 nulls (in words) (daf-9(dh6) nulls): had no effect
increase in binding units compared to vehicle control ([1]; 1 μM sterol): 2 fold
complete rescue of Daf-c and Mig phenotypes, animals tested (daf-9(dh6) null worms): 100%
daf-9 rescue by extracts from control microsome incubations (in words) (daf-9(dh6) null worms; [5]): had no biological effect
EC50 (GAL4-DAF-12): 2000 nM
DAF-9 independent activation of GAL4-DAF-12 (in words) (GAL4-DAF-12): strongly active

CC(C)CCC[C@@H](C)[C@H]1CC[C@H]2C3=CC[C@H]4[C@H](C)[C@@H](O)CC[C@]4(C)[C@H]3CC[C@]12C [lophenol]
effect on the nematode life cycle as the sole dietary sterol (C. elegans): constitutively entered dauer diapause
effect on daf-9 animals, DAF-9 microsomes (in words) (daf-9(dh6) null worms): had no effect
effect on daf-9 phenotypes, control microsomes (in words) (daf-9(dh6) null worms): had no effect

C[C@H](CCC(=O)O)[C@H]1CC[C@H]2[C@@H]3[C@H](O)C[C@@H]4C[C@H](O)CC[C@]4(C)[C@H]3CC[C@]12C [chenodeoxycholic acid]
Activation of DAF-12, initial compound screen (GAL4-DAF-12): No other bile acids or endocrine hormones tested activated DAF-12

CC(C)(O)CC[C@@H](O)[C@](C)(O)[C@H]1CC[C@@]2(O)C3=CC(=O)[C@@H]4C[C@@H](O)[C@@H](O)C[C@]4(C)[C@H]3CC[C@]12C [20-hydroxyecdysone]
Activation of DAF-12, initial compound screen (GAL4-DAF-12): No other bile acids or endocrine hormones tested activated DAF-12

C[C@]12CC[C@H]3[C@@H](CCC4=CC(=O)CC[C@@]43C)[C@@H]1CC[C@@H]2O [testosterone]
Activation of DAF-12, initial compound screen (GAL4-DAF-12): No other bile acids or endocrine hormones tested activated DAF-12

C[C@H](CO)CCC[C@@H](C)[C@H]1CC[C@H]2[C@@H]3CCC4=CC(=O)CC[C@]4(C)[C@H]3CC[C@]12C [(25S),26-hydroxy-4-cholesten-3-one]
effect of 26-hydroxy-4-cholesten-3-one on daf-9 nulls (in words) (daf-9(dh6) nulls): still exhibit Mig and/or molting defects, and sterility
worms that bypass dauer (daf-9(dh6) nulls; n>60): 93%
binding (in words) ([1]; 1 μM sterol): no significant binding
complete rescue of Daf-c and Mig phenotypes, animals tested (daf-9(dh6) null worms): 100%
daf-9 rescue by extracts from control microsome incubations (in words) (daf-9(dh6) null worms; [5]): only an incomplete rescue
molt defects (daf-9(dh6) null worms; [5]): 10%
sterile Mig adults (daf-9(dh6) null worms; [5]): 75%
EC50 (GAL4-DAF-12): 1000 nM
DAF-9 independent activation of GAL4-DAF-12 (in words) (GAL4-DAF-12): strongly active

C=C1/C(=C\C=C2/CCC[C@]3(C)[C@@H]([C@H](C)CCCC(C)(C)O)CC[C@@H]23)C[C@@H](O)C[C@@H]1O [1,25-dihydroxyvitamin D3]
Activation of DAF-12, initial compound screen (GAL4-DAF-12): No other bile acids or endocrine hormones tested activated DAF-12
